Here are results for 1 molecule from BindingDB's records for patent US20240010658 (Ono Pharmaceutical Co., 2024).

Broadly, the IC50 is the concentration at which inhibition is half-maximal. Low readings indicate higher potency, high ones lower potency.

The structures appear in SMILES notation.

The assay addresses T1, Monoacylglycerol lipase ABHD6 [33-337] (Homo sapiens, UniProt Q9BV23).
T1 construct: 33-337
T1 sequence (Q9BV23 whole entry): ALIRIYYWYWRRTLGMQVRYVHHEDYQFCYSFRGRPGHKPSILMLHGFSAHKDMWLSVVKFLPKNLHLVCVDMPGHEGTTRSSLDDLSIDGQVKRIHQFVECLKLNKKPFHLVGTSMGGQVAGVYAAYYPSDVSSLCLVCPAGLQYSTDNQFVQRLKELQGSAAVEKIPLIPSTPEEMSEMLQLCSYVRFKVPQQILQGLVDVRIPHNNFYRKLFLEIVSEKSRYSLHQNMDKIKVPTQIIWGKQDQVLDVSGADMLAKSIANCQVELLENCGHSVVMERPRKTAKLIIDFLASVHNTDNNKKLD
Kind of assay: Evaluation of ABHD6 Enzyme Inhibitory Activity Assay. How it is done:
The enzyme reaction was carried out at room temperature using a 384-well microplate made of polypropylene, and wells to which no enzyme was added were designated as a blank group. One hour after the start of the enzyme reaction, methanol containing, as an internal standard substance, arachidonic acid-d8 (Cayman Chemical) and 1% formic acid was added to stop enzymatic reaction. The upper part of the enzyme reaction plate was sealed with aluminum, and centrifugation was performed at 560 g for 5 minutes at room temperature. Then, arachidonic acid as an enzyme reaction product and arachidonic acid-ds as the internal standard substance were quantified with RapidFire (registered trademark)-Mass Spectrometry system.

On to `CN(C)c1ncc(C(=O)N2C[C@@H]3CC[C@@H](Nc4ccc(Br)nn4)[C@@H]3C2)s1` [US20240010658, Example 2-6], for which the IC50 entry is “in the range around 2 nM”.
